Measurements: ChEMBL document CHEMBL1201862, “PubChem BioAssay data set” (2004)
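A five-concentration, 48-hour dose response in 96-well plates underlies each endpoint, interpolated linearly between surrounding concentrations. Here, GI50 denotes the concentration required for 50% inhibition of growth.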 The source made the active and inactive calls. Cut-off read from the data, not from the text of the source: active = GI50 up to about 1.1 µM and inactive = higher.

Legend:
Assay in all cases: DTP human tumour cell line panel, 48 h
SK-MEL-28 = test system: SK-MEL-28
HCT-116 = test system: HCT-116
NCI-H226 = test system: NCI-H226
SK-OV-3 = test system: SK-OV-3
HL-60 = test system: HL-60
UO-31 = test system: UO-31
SF-539 = test system: SF-539
MOLT-4 = test system: MOLT-4
UACC-62 = test system: UACC-62
CCRF-CEM = test system: CCRF-CEM
NCI-H460 = test system: NCI-H460
HOP-92 = test system: HOP-92
DLD-1 = test system: DLD-1
LOX IMVI = test system: LOX IMVI
NCI-H522 = test system: NCI-H522
U-251 = test system: U-251
SNB-78 = test system: SNB-78
SR = test system: SR
HT-29 = test system: HT-29
KM12 = test system: KM12
OVCAR-4 = test system: OVCAR-4
OVCAR-5 = test system: OVCAR-5
OVCAR-3 = test system: OVCAR-3
IGROV-1 = test system: IGROV-1
RXF 393 = test system: RXF 393
K562 = test system: K562
CAKI-1 = test system: CAKI-1
DMS-114 = test system: DMS-114
ACHN = test system: ACHN
TK-10 = test system: TK-10
SK-MEL-2 = test system: SK-MEL-2
RPMI-8226 = test system: RPMI-8226
M19-MEL = test system: M19-MEL
EKVX = test system: EKVX
SNB-75 = test system: SNB-75
DMS-273 = test system: DMS-273
UACC-257 = test system: UACC-257
LXFL 529 = test system: LXFL 529
SF-268 = test system: SF-268
A498 = test system: A498
HCT-15 = test system: HCT-15
KM-20L2 = test system: KM-20L2
SNB-19 = test system: SNB-19
NCI-H23 = test system: NCI-H23
SK-MEL-5 = test system: SK-MEL-5
A549 = test system: A549
786-0 = test system: 786-0
M14 = test system: M14
OVCAR-8 = test system: OVCAR-8
HCC 2998 = test system: HCC 2998
SW-620 = test system: SW-620
Malme-3M = test system: Malme-3M
SF-295 = test system: SF-295
SN12C = test system: SN12C
HOP-62 = test system: HOP-62
COLO 205 = test system: COLO 205

CCCCCC(=O)N[C@H]1CCc2cc(O)c(O)c(O)c2-c2ccc(SC)c(=O)cc21
GI50 (SK-MEL-28): 48.3 µM (inactive)
GI50 (HCT-116): 18.8 µM (inactive)
GI50 (NCI-H226): 28.2 µM (inactive)
GI50 (SK-OV-3): 23.3 µM (inactive)
GI50 (HL-60): 20.5 µM (inactive)
GI50 (UO-31): > 77.6 µM (inactive)
GI50 (SF-539): 20.9 µM (inactive)
GI50 (MOLT-4): 27.8 µM (inactive)
GI50 (UACC-62): 31.6 µM (inactive)
GI50 (CCRF-CEM): 23.2 µM (inactive)
GI50 (NCI-H460): 38.4 µM (inactive)
GI50 (HOP-92): 25.7 µM (inactive)
GI50 (DLD-1): 19.6 µM (inactive)
GI50 (LOX IMVI): 23.1 µM (inactive)
GI50 (NCI-H522): 15.1 µM (inactive)
GI50 (U-251): 27.9 µM (inactive)
GI50 (SNB-78): 65.2 µM (inactive)
GI50 (SR): 22.8 µM (inactive)
GI50 (HT-29): 32.7 µM (inactive)
GI50 (KM12): 39.6 µM (inactive)
GI50 (OVCAR-4): 18.1 µM (inactive)
GI50 (OVCAR-5): > 100 µM (inactive)
GI50 (OVCAR-3): 35.2 µM (inactive)
GI50 (IGROV-1): 38.4 µM (inactive)
GI50 (RXF 393): 38.9 µM (inactive)
GI50 (K562): 6.47 µM (inactive)
GI50 (CAKI-1): 28.3 µM (inactive)
GI50 (DMS-114): 15.5 µM (inactive)
GI50 (ACHN): > 100 µM (inactive)
GI50 (TK-10): > 100 µM (inactive)
GI50 (SK-MEL-2): 33 µM (inactive)
GI50 (RPMI-8226): 70.5 µM (inactive)
GI50 (M19-MEL): 19.9 µM (inactive)
GI50 (EKVX): > 63.1 µM (inactive)
GI50 (SNB-75): 32.2 µM (inactive)
GI50 (DMS-273): 32.5 µM (inactive)
GI50 (UACC-257): 37.5 µM (inactive)
GI50 (LXFL 529): 21.5 µM (inactive)
GI50 (SF-268): 38.7 µM (inactive)
GI50 (A498): 29 µM (inactive)
GI50 (HCT-15): 22.5 µM
GI50 (KM-20L2): 27.6 µM (inactive)
GI50 (SNB-19): 43.3 µM (inactive)
GI50 (NCI-H23): 21.6 µM (inactive)
GI50 (SK-MEL-5): 28.4 µM (inactive)
GI50 (A549): 36.7 µM (inactive)
GI50 (786-0): 44.5 µM (inactive)
GI50 (M14): 19 µM (inactive)
GI50 (OVCAR-8): 26.1 µM (inactive)
GI50 (HCC 2998): 32.9 µM (inactive)
GI50 (SW-620): 17.8 µM (inactive)
GI50 (Malme-3M): > 80.5 µM (inactive)
GI50 (SF-295): 23.4 µM (inactive)
GI50 (SN12C): 20.3 µM (inactive)
GI50 (HOP-62): 47 µM (inactive)
GI50 (COLO 205): 23.3 µM (inactive)
